Measured values reported in ChEMBL document CHEMBL1146337, “Efficient synthesis of substituted 7-methyl-2H,5H-pyrano[4,3-b]pyran-5-ones and evaluation of their in vitro antiproliferative/cytotoxic activities” (Bioorg Med Chem Lett, 2007).
pIC50: −log10 of the molar value. The source made the active and inactive calls. No cut-off for these calls is given here.

Assays:
SH-SY5Y [1] = experiment: Antiproliferative activity against human SH-SY5Y cells at 50 ug/mL after 24 hrs; type: functional
SH-SY5Y [2] = experiment: Antiproliferative activity against human SH-SY5Y cells at 25 ug/mL after 24 hrs; type: functional
SH-SY5Y [3] = experiment: Antiproliferative activity against human SH-SY5Y cells at 12.5 ug/mL after 24 hrs; type: functional
SH-SY5Y [4] = experiment: Cytotoxicity against human SH-SY5Y cells after 24 hrs; type: functional, cell-based
SH-SY5Y [5] = experiment: Antiproliferative activity against human SH-SY5Y cells at 6.25 ug/mL after 24 hrs; type: functional
SH-SY5Y [6] = experiment: Antiproliferative activity against human SH-SY5Y cells at 3.13 ug/mL after 24 hrs; type: functional
SH-SY5Y [7] = experiment: Antiproliferative activity against human SH-SY5Y cells at 1.56 ug/mL after 24 hrs; type: functional
IPC = experiment: Necrotic effect in human IPC cells at 12.5 ug/mL after 3 hrs; type: functional, cell-based

## Cc1cc2c(c(=O)o1)C=C1C(C[C@H]3C[C@@H]1C3(C)C)O2 (some centres not stated)
SH-SY5Y [1]
  inhibition at 50 µg/mL: 84.1%
SH-SY5Y [2]
  inhibition at 25 µg/mL: 67.8%
SH-SY5Y [3]
  inhibition at 12.5 µg/mL: 24.4%
SH-SY5Y [4]
  pIC50: 4.15

## CCCCCCCCC1C=Cc2c(cc(C)oc2=O)O1 (configuration not stated)
SH-SY5Y [1]
  inhibition at 50 µg/mL: 83.3%
SH-SY5Y [2]
  inhibition at 25 µg/mL: 60.1%
SH-SY5Y [3]
  inhibition at 12.5 µg/mL: 21.1%
SH-SY5Y [4]
  pIC50: 4.12

## Cc1cc2c(c(=O)o1)C=C1CCCC1O2 (configuration not stated)
SH-SY5Y [1]
  inhibition at 50 µg/mL: 51.2%
SH-SY5Y [2]
  inhibition at 25 µg/mL: 14.9%
SH-SY5Y [3]
  inhibition at 12.5 µg/mL: 19.3%
SH-SY5Y [4]
  pIC50: 3.60

## Cc1cc2c(c(=O)o1)C=C1CCCCC1(C)O2 (configuration not stated)
SH-SY5Y [1]
  inhibition at 50 µg/mL: 60.6%
SH-SY5Y [2]
  inhibition at 25 µg/mL: 11.4%
SH-SY5Y [3]
  inhibition at 12.5 µg/mL: 1.18%
SH-SY5Y [4]
  pIC50: 3.73

## CCC1C=Cc2c(cc(C)oc2=O)O1 (configuration not stated)
SH-SY5Y [1]
  inhibition at 50 µg/mL: 43.7%
SH-SY5Y [2]
  inhibition at 25 µg/mL: 4.95%
SH-SY5Y [3]
  inhibition at 12.5 µg/mL: 3.62%
SH-SY5Y [4]
  pIC50: < 3.70

## Cc1cc2c(c(=O)o1)C=C1C(C)(C)CC=CC1(C)O2 (configuration not stated)
SH-SY5Y [1]
  inhibition at 50 µg/mL: 84.8%
SH-SY5Y [2]
  inhibition at 25 µg/mL: 79.8%
SH-SY5Y [3]
  inhibition at 12.5 µg/mL: 51.9%
SH-SY5Y [5]
  inhibition at 6.25 µg/mL: 16.9%
SH-SY5Y [6]
  inhibition at 3.13 µg/mL: 6.01%
SH-SY5Y [4]
  pIC50: 4.33

## Cc1cc2c(c(=O)o1)C=C(C(C)C)C(CC(C)C)O2 (configuration not stated)
SH-SY5Y [1]
  inhibition at 50 µg/mL: 95.7%
SH-SY5Y [2]
  inhibition at 25 µg/mL: 96.6%
SH-SY5Y [3]
  inhibition at 12.5 µg/mL: 94%
SH-SY5Y [5]
  inhibition at 6.25 µg/mL: 93.8%
SH-SY5Y [6]
  inhibition at 3.13 µg/mL: 87.5%
SH-SY5Y [7]
  inhibition at 1.56 µg/mL: 38.5%
SH-SY5Y [4]
  pIC50: 5.17
IPC
  Activity: inactive

## Cc1cc2c(c(=O)o1)C=C(c1ccccc1)C(CC(C)C)O2 (configuration not stated)
SH-SY5Y [1]
  inhibition at 50 µg/mL: 81.7%
SH-SY5Y [2]
  inhibition at 25 µg/mL: 45.7%
SH-SY5Y [3]
  inhibition at 12.5 µg/mL: 14.6%
SH-SY5Y [4]
  pIC50: 4.03

## CC1=Cc2c(cc(C)oc2=O)OC1C (configuration not stated)
SH-SY5Y [1]
  inhibition at 50 µg/mL: 53.8%
SH-SY5Y [2]
  inhibition at 25 µg/mL: 43.8%
SH-SY5Y [4]
  pIC50: 3.70

## CC1=Cc2c(cc(C)oc2=O)OC1c1ccco1 (configuration not stated)
SH-SY5Y [1]
  inhibition at 50 µg/mL: 64.4%
SH-SY5Y [2]
  inhibition at 25 µg/mL: 64.3%
SH-SY5Y [3]
  inhibition at 12.5 µg/mL: 50.6%
SH-SY5Y [5]
  inhibition at 6.25 µg/mL: 30.9%
SH-SY5Y [6]
  inhibition at 3.13 µg/mL: 21.6%
SH-SY5Y [4]
  pIC50: 4.31

## CC(C)=CCCC1(C)C=Cc2c(cc(C)oc2=O)O1 (configuration not stated)
SH-SY5Y [1]
  inhibition at 50 µg/mL: 37.4%
SH-SY5Y [2]
  inhibition at 25 µg/mL: 30.4%
SH-SY5Y [4]
  pIC50: < 3.70

## Cc1cc2c(c(=O)o1)C=C1C(C)(C)CCCC1(C)O2 (configuration not stated)
SH-SY5Y [1]
  inhibition at 50 µg/mL: 75.1%
SH-SY5Y [2]
  inhibition at 25 µg/mL: 74.2%
SH-SY5Y [3]
  inhibition at 12.5 µg/mL: 72.9%
SH-SY5Y [5]
  inhibition at 6.25 µg/mL: 18.4%
SH-SY5Y [6]
  inhibition at 3.13 µg/mL: 1.11%
SH-SY5Y [7]
  inhibition at 1.56 µg/mL: 8.34%
SH-SY5Y [4]
  pIC50: 4.51
